Reference: ChEMBL document CHEMBL3301562, “MMV Box screening against Plasmodium falciparum protein kinases and aminoacyl tRNA synthetases”

Experiments:
Type in all cases: functional
[1] = target: Calcium-dependent protein kinase 1 (Plasmodium falciparum, UniProt P62344); experiment: MMV: CDPK1 Protein kinase inhibition assay using recombinant PfCDPK1, syntide 2 peptide substrate, ATP and KinaseGlo to measure % inhibition at 1 uM MMV box compound.
[2] = target: T1, Mitogen-activated protein kinase (Plasmodium falciparum, UniProt Q25917); experiment: Final concentrations were 1 uM ATP, 0.5 mM DTT, 1 mM MgCl2, 0.5 mg/mL BSA, and 10 ug/ml MAP2 in a buffer of 50 mM HEPES (pH 7.0). 0.5 mg/mL histone III-S served as the substrate (13); 100 uM AMP-PNP, an ATP analog, was used as a control inhibitor. Incubation time was 4 hours.
T1 sequence (Q25917 whole entry): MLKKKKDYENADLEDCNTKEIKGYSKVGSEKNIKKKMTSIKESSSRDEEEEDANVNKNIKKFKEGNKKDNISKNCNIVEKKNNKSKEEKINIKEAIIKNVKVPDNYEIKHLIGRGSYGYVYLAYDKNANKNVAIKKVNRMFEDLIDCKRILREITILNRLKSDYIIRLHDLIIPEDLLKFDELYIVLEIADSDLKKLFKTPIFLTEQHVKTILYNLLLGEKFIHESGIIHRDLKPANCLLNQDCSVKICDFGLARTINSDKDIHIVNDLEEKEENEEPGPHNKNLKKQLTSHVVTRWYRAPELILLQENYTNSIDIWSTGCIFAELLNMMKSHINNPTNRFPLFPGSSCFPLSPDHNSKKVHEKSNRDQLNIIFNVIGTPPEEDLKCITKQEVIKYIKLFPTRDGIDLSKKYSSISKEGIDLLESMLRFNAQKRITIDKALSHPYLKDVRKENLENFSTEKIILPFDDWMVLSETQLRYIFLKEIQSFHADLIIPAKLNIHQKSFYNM

[3] = target: T2, Calcium-dependent protein kinase 4 (Plasmodium falciparum (isolate 3D7), UniProt Q8IBS5); experiment: MMV: CDPK4 Protein kinase inhibition assay using recombinant PfCDPK4, syntide2 peptide substrate, ATP and KinaseGlo to measure % inhibition at 1 uM MMV box compound.
T2 sequence (Q8IBS5 whole entry): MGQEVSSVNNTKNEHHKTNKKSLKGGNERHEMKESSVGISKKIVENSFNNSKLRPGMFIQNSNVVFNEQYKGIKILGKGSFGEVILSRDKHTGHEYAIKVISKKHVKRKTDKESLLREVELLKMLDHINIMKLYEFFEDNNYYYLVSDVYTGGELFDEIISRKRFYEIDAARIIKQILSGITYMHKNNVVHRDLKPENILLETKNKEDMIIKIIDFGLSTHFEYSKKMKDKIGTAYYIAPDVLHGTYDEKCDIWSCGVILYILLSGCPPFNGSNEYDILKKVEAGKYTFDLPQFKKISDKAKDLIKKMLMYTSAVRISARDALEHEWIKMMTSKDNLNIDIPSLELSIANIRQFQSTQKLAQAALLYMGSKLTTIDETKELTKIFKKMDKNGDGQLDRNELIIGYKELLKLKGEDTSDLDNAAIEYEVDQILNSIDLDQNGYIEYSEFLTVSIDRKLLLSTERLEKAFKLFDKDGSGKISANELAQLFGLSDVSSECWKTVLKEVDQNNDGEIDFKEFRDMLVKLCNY

Lysine--tRNA ligase = Lysine--tRNA ligase (Plasmodium falciparum (isolate 3D7), UniProt Q8IDJ8); experiment: MMV: KRS recombinant Plasmodium falciparum Lysyl-tRNA-synthetase, assay with yeast tRNA, ATP, and lysine and 3 uM MMV malaria box compound, assay read out with kinase glo as % inhibition.
[4] = target: T3, Cdk-related protein kinase 6 (Plasmodium falciparum, UniProt O77239); experiment: Final concentrations were 1.5 uM ATP, 5 mM MnCl2, and 15 ug/ml PK6 in a buffer of 100 mM Tris-HCl (pH 7.5). 50 ug/mL MBP was provided as the substrate; 10 uM staurosporine was used as a control inhibitor. Incubation time was 3 hours and 40 minutes.The catalytic activity of each kinase was considered proportional to ATP consumed, as determined from measurements of residual [ATP] with the luciferase-based reagent Kinase-Glo (Promega) following incubation. Luminescence (proportional to residual [ATP]) was measured on the plate readers FLx800 (BioTek Instruments, Winooski, VT, USA) and MicroBeta2.
T3 sequence (O77239 whole entry): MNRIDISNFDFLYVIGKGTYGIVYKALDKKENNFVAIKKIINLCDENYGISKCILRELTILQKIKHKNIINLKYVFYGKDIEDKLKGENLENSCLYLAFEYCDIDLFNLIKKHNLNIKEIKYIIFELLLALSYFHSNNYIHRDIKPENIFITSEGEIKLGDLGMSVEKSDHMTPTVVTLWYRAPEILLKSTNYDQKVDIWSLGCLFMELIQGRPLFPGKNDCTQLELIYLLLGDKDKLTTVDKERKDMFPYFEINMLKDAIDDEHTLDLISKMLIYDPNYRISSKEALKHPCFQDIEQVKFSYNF

[5] = target: T4, Putative uncharacterized protein pk7 (Plasmodium falciparum, UniProt O96214); experiment: Final concentrations were 1 uM ATP, 2 mM DTT, 20 mM MgCl2, 2 mM MnCl2, 0.01% BSA, and 6 ug/ml PK7, in a buffer of 20 mM Tris-HCl (pH 7.5). The enzyme itself was the only substrate present (since autophosphorylation occurs); 100 uM 1NA-PP1 was used as a control inhibitor. Incubation time was 3 hours.
T4 sequence (O96214 whole entry): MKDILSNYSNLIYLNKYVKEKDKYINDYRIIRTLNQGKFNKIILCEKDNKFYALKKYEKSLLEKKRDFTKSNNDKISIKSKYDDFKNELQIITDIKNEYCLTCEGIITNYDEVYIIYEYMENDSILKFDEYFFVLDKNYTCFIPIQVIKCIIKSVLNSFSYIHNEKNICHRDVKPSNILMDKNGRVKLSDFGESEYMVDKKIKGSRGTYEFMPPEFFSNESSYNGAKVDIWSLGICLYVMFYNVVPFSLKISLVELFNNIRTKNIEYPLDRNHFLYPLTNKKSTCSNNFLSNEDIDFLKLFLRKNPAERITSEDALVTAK

Proline--tRNA ligase = target: T5, Proline--tRNA ligase (Plasmodium falciparum (isolate 3D7), UniProt Q8I5R7); experiment: MMV: ProRS recombinant Plasmodium falciparum Prolyl-tRNA-synthetase, assay with yeast tRNA, ATP, and proline and 3 uM MMV malaria box compound, assay read out with kinase glo as % inhibition.
T5 sequence (Q8I5R7 whole entry): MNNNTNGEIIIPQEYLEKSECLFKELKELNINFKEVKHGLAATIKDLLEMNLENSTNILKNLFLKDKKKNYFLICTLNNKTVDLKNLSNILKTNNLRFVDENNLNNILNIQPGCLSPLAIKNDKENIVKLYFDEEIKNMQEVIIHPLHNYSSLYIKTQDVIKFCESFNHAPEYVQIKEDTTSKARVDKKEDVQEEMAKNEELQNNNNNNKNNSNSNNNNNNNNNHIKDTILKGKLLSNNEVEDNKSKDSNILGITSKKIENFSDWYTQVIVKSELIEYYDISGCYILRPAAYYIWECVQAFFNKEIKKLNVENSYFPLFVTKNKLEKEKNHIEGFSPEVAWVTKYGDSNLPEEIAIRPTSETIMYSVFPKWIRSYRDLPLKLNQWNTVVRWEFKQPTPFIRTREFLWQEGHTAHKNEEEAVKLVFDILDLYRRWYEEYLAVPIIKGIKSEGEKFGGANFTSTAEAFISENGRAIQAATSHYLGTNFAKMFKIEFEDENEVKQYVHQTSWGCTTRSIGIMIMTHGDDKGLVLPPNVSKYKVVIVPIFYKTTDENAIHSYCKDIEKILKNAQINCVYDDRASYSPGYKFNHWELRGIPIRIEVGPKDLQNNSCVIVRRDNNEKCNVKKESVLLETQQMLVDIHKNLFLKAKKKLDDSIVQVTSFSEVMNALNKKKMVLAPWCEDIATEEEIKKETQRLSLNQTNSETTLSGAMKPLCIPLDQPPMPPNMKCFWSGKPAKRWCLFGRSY

Chain of Lysine--tRNA ligase (Q8IDJ8 whole entry): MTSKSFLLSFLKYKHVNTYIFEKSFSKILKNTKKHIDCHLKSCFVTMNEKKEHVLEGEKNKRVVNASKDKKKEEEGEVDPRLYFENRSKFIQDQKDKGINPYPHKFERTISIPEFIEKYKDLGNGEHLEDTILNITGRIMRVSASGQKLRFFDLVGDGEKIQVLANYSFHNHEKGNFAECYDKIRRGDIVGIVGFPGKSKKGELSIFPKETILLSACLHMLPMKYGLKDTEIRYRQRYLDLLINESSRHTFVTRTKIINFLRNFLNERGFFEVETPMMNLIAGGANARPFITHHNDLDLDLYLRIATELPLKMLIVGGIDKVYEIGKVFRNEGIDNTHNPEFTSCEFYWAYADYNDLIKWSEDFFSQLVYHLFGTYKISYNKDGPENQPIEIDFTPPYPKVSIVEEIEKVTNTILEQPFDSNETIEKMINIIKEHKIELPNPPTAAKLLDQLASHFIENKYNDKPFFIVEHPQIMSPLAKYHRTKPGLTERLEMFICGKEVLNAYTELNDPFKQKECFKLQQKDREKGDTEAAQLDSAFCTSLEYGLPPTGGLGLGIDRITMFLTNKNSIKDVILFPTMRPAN
Chain of Calcium-dependent protein kinase 1 (P62344 whole entry): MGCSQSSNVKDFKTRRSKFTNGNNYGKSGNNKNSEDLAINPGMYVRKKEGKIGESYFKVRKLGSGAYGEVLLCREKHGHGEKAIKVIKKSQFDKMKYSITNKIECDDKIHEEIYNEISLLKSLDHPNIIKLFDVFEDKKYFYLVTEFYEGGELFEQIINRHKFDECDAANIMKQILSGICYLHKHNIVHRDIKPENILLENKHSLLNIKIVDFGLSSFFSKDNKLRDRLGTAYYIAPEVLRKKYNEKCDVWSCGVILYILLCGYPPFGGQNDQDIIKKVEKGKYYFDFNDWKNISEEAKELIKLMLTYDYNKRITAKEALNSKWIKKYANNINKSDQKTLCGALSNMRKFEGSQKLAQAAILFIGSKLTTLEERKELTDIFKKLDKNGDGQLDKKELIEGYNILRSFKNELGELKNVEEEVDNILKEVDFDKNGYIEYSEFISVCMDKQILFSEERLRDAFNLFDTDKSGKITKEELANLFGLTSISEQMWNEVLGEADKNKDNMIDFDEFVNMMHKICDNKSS

SMILES | IC50 [1] [nM] | IC50 [2] [nM] | IC50 [3] [nM] | IC50 (Lysine--tRNA ligase) [nM] | IC50 [4] [nM] | IC50 [5] [nM] | IC50 (Proline--tRNA ligase) [nM]
N=c1n(CCN2CCCCC2)c2ccccc2n1CC(=O)c1ccc(Cl)c(Cl)c1 | > 1000 | > 1000 | > 1000 | > 2500 | > 1000 | > 1000 | > 2500
Cc1sc(NC(=O)c2ccco2)c(C(c2cccnc2)N2CCC(Cc3ccccc3)CC2)c1C (configuration not stated) | > 1000 | > 1000 | > 1000 | > 2500 | > 1000 | > 1000 | > 2500
COc1cc(C(=O)Nc2nc3c(cc4c5c(cccc53)CC4)s2)cc(OC)c1OC | > 1000 | > 1000 | > 1000 | > 2500 | > 1000 | > 1000 | > 2500
COC(=O)c1ccc(Cl)c2c1C1C=CCC1C(c1cccc3ccccc13)N2 (configuration not stated) | > 1000 | > 1000 | > 1000 | > 2500 | > 1000 | > 1000 | > 2500
OC1=C2C(=Nc3ccccc3SC2c2ccccc2)c2ccccc21 (configuration not stated) | > 1000 | > 1000 | > 1000 | > 2500 | > 1000 | > 1000 | > 2500
COc1cc(C(=O)Nc2ccc(-c3nc4ccccc4[nH]3)cc2)cc(OC)c1OC | > 1000 | > 1000 | > 1000 | > 2500 | > 1000 | > 1000 | > 2500
COC(=O)c1ccc(C2C3=C(O)CC(c4ccc(F)cc4)CC3=Nc3ccccc3N2C(=O)c2ccccc2)cc1 (configuration not stated) | > 1000 | > 1000 | > 1000 | > 2500 | > 1000 | > 1000 | > 2500
CCOc1ccc(CN2CCN(CC(O)COc3ccc(OCC(O)CN4CCN(Cc5ccc(OCC)cc5)CC4)cc3)CC2)cc1 (configuration not stated) | > 1000 | > 1000 | > 1000 | > 2500 | > 1000 | > 1000 | > 2500
CCCCNc1nc(NC(C)(C)C)nc(NC(C)(C)C)n1 | > 1000 | > 1000 | > 1000 | > 2500 | > 1000 | > 1000 | > 2500
CC(=O)c1sc(NC(=O)Nc2ccc(C)cc2C)nc1C | > 1000 | > 1000 | > 1000 | > 2500 | > 1000 | > 1000 | > 2500
Oc1ccc2ccccc2c1CNc1nc2ccccc2[nH]1 | > 1000 | > 1000 | > 1000 | > 2500 | > 1000 | > 1000 | > 2500
O=C(Nc1ccc(-c2nc3ccccc3[nH]2)cc1)c1ccc(Cl)c(Cl)c1 | > 1000 | > 1000 | > 1000 | > 2500 | > 1000 | > 1000 | > 2500
Cc1cc(N(C)C)nc(Nc2ccc(NC(=O)Nc3ccccc3)cc2)n1 | > 1000 | > 1000 | > 1000 | > 2500 | > 1000 | > 1000 | > 2500
COc1cc(C(=O)ON=C(N)Cc2cccc3ccccc23)cc(OC)c1OC | > 1000 | > 1000 | > 1000 | > 2500 | > 1000 | > 1000 | > 2500
Oc1c(C(Nc2ccccn2)c2cccc(Oc3ccccc3)c2)ccc2cccnc12 (configuration not stated) | > 1000 | > 1000 | > 1000 | > 2500 | > 1000 | > 1000 | > 2500
COc1cc(-c2nc(-c3ccccc3)c(-c3ccccc3)[nH]2)cc(OC)c1O | > 1000 | > 1000 | > 1000 | > 2500 | > 1000 | > 1000 | > 2500
Cc1ccc(Nc2nc(N)c3ccccc3n2)cc1Cl | > 1000 | > 1000 | > 1000 | > 2500 | > 1000 | > 1000 | > 2500
CCn1c2c(c(=N)c3c1CCC3)CCCC2 | > 1000 | > 1000 | > 1000 | > 2500 | > 1000 | > 1000 | > 2500
Cc1ccc2c(C)nc(Nc3nc(C)cc(-c4ccccc4)n3)nc2c1 | > 1000 | > 1000 | > 1000 | > 2500 | > 1000 | > 1000 | > 2500
CCOc1ccc(Nc2ccnc3cc(Cl)ccc23)cc1 | > 1000 | > 1000 | > 1000 | > 2500 | > 1000 | > 1000 | > 2500
Cc1ccc(C)c(-c2csc(Nc3ccc(C)c(C)c3)n2)c1 | > 1000 | > 1000 | > 1000 | > 2500 | > 1000 | > 1000 | > 2500
